Assay: Effective concentration of glycerol (Example 2; sputum dried 4 hours, 15 minutes incubation in third cycle)
Design: species or system Human
Settings: glycerol and dextran sulfate combination in 0.85% NaCl
Protocol: Test solutions containing different concentrations of glycerol and dextran sulfate (w/v) were prepared in 0.85% normal saline. All steps were performed at 37° C. unless specified otherwise. Each well of a 48 well microtitre plate was pre-wetted with a test solution for 2 hours. Human sputum (20 μl) was then allowed to dry for 2 hours on the pre-wetted surface, followed by incubation with 100 μl of the test solution for 15 minutes to dissolve the dried sputum, and subsequent removal of the solution. The complete cycle of sputum drying, incubation with the test solution and removal, was repeated three times. In the third and final cycle, the dried sputum was incubated with the test solution overnight instead of 15 minutes. Visual observations were recorded at each cycle and pictures were taken under a microscope.
Sputum was dried for 4 hours instead of 2 hours in each cycle, and in the third cycle dried sputum was incubated with the test solution for only 15 minutes instead of an overnight incubation.
All the test solutions contained 0.85% of NaCl.

Compound	Most effective concentration range
OCC(O)CO [glycerol]	30-50%
dextran sulfate	10-20%

— patent publication US8691286B2, “Sputum dissolving suctioning solution for endotracheal and tracheostomy tubes” (Teleflex Medical Incorporated, priority 2009, dated 2014)
